In the supplement of paper PMC10307832:

Experiments:
Experiment in all cases: relative viability (nuclei count vs DMSO), 5 days (fraction); higher = more cells survive
[1] = compound: COc1cc2nccc(Oc3ccc(NC(=O)C4(C(=O)Nc5ccc(F)cc5)CC4)cc3)c2cc1OC [Cabozantinib] + Nc1ncn([C@H]2C[C@H](O)[C@@H](CO)O2)c(=O)n1 [Decitabine] (partner 2 µM)
Summary of the method: (§1)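 Cells from lung cancer lines were seeded into 1536-well plates and, one day later, dosed by pin tool. Treatments were either a single drug or a fixed dose of an anchor drug with five library-drug doses (not always all listed) in √10 steps. After 5 days, nuclei were stained in a one-step fixation (final 0.05% Triton X-100, 1% formaldehyde, 1 ug/ml Hoechst) and counted on 4× images, and relative viability is the treated-to-vehicle nuclei ratio, as the median of duplicate plates.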

Zosuquidar + Phenformin = compound: O[C@@H](COc1cccc2ncccc12)CN1CCN([C@@H]2c3ccccc3[C@@H]3[C@H](c4ccccc42)C3(F)F)CC1 [Zosuquidar] + N=C(N)NC(=N)NCCc1ccccc1 [Phenformin] (partner 250 µM)
Summary of the method: as §1

Kobe2602 + Alpelisib = compound: C1=CC(=CC=C1NC(=S)NNC2=C(C=C(C=C2[N+](=O)[O-])C(F)(F)F)[N+](=O)[O-])F [Kobe2602] + Cc1nc(NC(=O)N2CCC[C@H]2C(N)=O)sc1-c1ccnc(C(C)(C)C(F)(F)F)c1 [Alpelisib] (partner 2 µM)
Summary of the method: as §1

Zosuquidar + Pictilisib = compound: O[C@@H](COc1cccc2ncccc12)CN1CCN([C@@H]2c3ccccc3[C@@H]3[C@H](c4ccccc42)C3(F)F)CC1 [Zosuquidar] + CS(=O)(=O)N1CCN(Cc2cc3nc(-c4cccc5[nH]ncc45)nc(N4CCOCC4)c3s2)CC1 [Pictilisib] (partner 1 µM)
Summary of the method: as §1

Cell Line | relative viability ([1]; first compound 0.02 µM) | relative viability ([1]; first compound 0.06325 µM) | relative viability ([1]; first compound 0.2 µM) | relative viability ([1]; first compound 0.6325 µM) | relative viability ([1]; first compound 2 µM) | relative viability (Zosuquidar + Phenformin; first compound 0.01 µM) | relative viability (Zosuquidar + Phenformin; first compound 0.03162 µM) | relative viability (Zosuquidar + Phenformin; first compound 0.1 µM) | relative viability (Zosuquidar + Phenformin; first compound 0.3162 µM) | relative viability (Zosuquidar + Phenformin; first compound 1 µM) | relative viability (Kobe2602 + Alpelisib; first compound 0.2 µM) | relative viability (Kobe2602 + Alpelisib; first compound 0.6325 µM) | relative viability (Kobe2602 + Alpelisib; first compound 2 µM) | relative viability (Kobe2602 + Alpelisib; first compound 6.325 µM) | relative viability (Kobe2602 + Alpelisib; first compound 20 µM) | relative viability (Zosuquidar + Pictilisib; first compound 0.01 µM) | relative viability (Zosuquidar + Pictilisib; first compound 0.03162 µM) | relative viability (Zosuquidar + Pictilisib; first compound 0.1 µM) | relative viability (Zosuquidar + Pictilisib; first compound 0.3162 µM) | relative viability (Zosuquidar + Pictilisib; first compound 1 µM)
201T | 0.874 | 0.945 | 0.839 | 0.836 | 0.826 | 0.449 | 0.444 | 0.404 | 0.468 | 0.472 | 1.09 | 1.01 | 0.968 | 1.11 | 1.09 | 0.659 | 0.683 | 0.573 | 0.677 | 0.665
NCI-H2023 | 0.261 | 0.235 | 0.239 | 0.234 | 0.24 | 0.387 | 0.426 | 0.385 | 0.408 | 0.396 | 0.561 | 0.58 | 0.588 | 0.516 | 0.498 | 0.235 | 0.235 | 0.171 | 0.324 | 0.271
NCI-H1793 | 0.4 | 0.555 | – | 0.469 | 0.489 | 0.387 | 0.346 | – | 0.469 | 0.359 | 0.629 | 0.615 | 0.589 | 0.684 | 0.847 | 0.483 | 0.383 | – | 0.357 | 0.297
NCI-H2347 | 0.66 | 0.667 | 0.601 | 0.609 | 0.516 | 0.411 | 0.394 | 0.253 | 0.396 | 0.426 | 0.972 | 1.01 | 0.969 | 1.08 | 1.09 | 0.627 | 0.495 | 0.467 | 0.735 | 0.647
LXF-289 | 0.353 | 0.395 | 0.392 | 0.433 | 0.377 | 0.52 | 0.502 | 0.484 | 0.543 | 0.5 | 1.01 | 1.02 | 0.976 | 1.06 | 0.994 | 0.767 | 0.776 | 0.747 | 0.818 | 0.781
EKVX | 0.328 | 0.386 | 0.261 | 0.336 | 0.394 | 0.231 | 0.252 | 0.189 | 0.243 | 0.227 | 0.886 | 0.852 | 0.826 | 0.913 | 0.925 | 0.427 | 0.446 | 0.346 | 0.455 | 0.444
ABC-1 | – | 0.846 | 1.05 | 1.05 | 0.982 | 0.253 | 0.257 | 0.252 | 0.256 | 0.266 | 0.785 | 1.06 | 1.13 | 1.11 | 1.08 | 0.756 | 0.661 | 0.724 | 0.743 | 0.679
NCI-H650 | 0.315 | 0.372 | 0.45 | 0.338 | 0.304 | 0.464 | 0.42 | 0.379 | 0.482 | 0.448 | 1.06 | 1.28 | 1.12 | 1.14 | 1.08 | 0.787 | 0.789 | – | 1.05 | 0.942
NCI-H1734 | 0.545 | 0.53 | 0.523 | 0.508 | 0.53 | 0.395 | 0.372 | 0.407 | 0.466 | 0.385 | 0.71 | 0.816 | 0.665 | 0.726 | 0.784 | 0.388 | 0.484 | 0.399 | 0.471 | 0.478
LOU-NH91 | 0.798 | 0.825 | 0.654 | 0.791 | 0.802 | 0.62 | 0.702 | – | 0.768 | 0.692 | 0.767 | 0.752 | 0.701 | 0.722 | 0.778 | 0.536 | 0.572 | 0.482 | 0.543 | 0.516
SK-MES-1 | 0.449 | 0.412 | 0.373 | 0.431 | 0.399 | 0.661 | 0.622 | 0.644 | 0.607 | 0.637 | 0.817 | 0.955 | 0.844 | 0.79 | 0.877 | 0.324 | 0.324 | 0.33 | 0.394 | 0.392
NCI-H2170 | 0.436 | 0.465 | 0.446 | 0.487 | 0.458 | 0.388 | 0.463 | 0.393 | 0.395 | 0.445 | 0.807 | 0.86 | 0.794 | 0.726 | 0.772 | 0.295 | 0.266 | 0.312 | 0.345 | 0.281
NCI-H460 | 0.509 | 0.477 | 0.724 | 0.51 | 0.486 | 0.48 | 0.508 | 0.445 | 0.529 | 0.498 | 0.513 | 0.55 | 0.507 | 0.499 | 0.444 | 0.326 | 0.393 | 0.27 | 0.437 | 0.393
SK-LU-1 | 0.583 | 0.698 | 0.668 | 0.631 | 0.627 | 0.547 | 0.522 | 0.531 | 0.632 | 0.557 | 1.03 | 1.37 | 0.968 | 0.948 | 0.977 | 0.552 | 0.642 | 0.567 | 0.689 | 0.543
EPLC-272H | 0.37 | 0.395 | 0.33 | 0.377 | 0.336 | 0.344 | 0.288 | 0.287 | 0.241 | 0.301 | 0.883 | 1.08 | 0.908 | 0.885 | 0.925 | 0.308 | 0.344 | 0.311 | 0.272 | 0.35
A-427 | 0.569 | 0.589 | 0.57 | 0.621 | 0.596 | 0.344 | 0.324 | 0.368 | 0.401 | 0.383 | 1.11 | 1.12 | 1.06 | 1.05 | 1.1 | 0.665 | 0.538 | 0.567 | 0.91 | 0.77
